From patent publication US20050197364A1, “Amide compounds as ion channel ligands and uses thereof” (priority 2003, published 2005)

The molecules below were run on VR1 receptor (assay: High throughput calcium imaging assay (Fura2, Flex Station) of VR1 antagonists, pH 5.1 stimulus). Details: 1 uM compound; inhibition of calcium ion influx induced by capsaicin stimulation.
Type: cell-based

Row | Compound | % Inhibition @ 1 uM
1 | O=C(Nc1ccc(F)c(F)c1)c1ccc(-c2ncccc2Cl)c(F)c1 [Compound 178] | + + + (compound exhibited 50-75% inhibition of calcium ion influx induced by capsaicin stimulation)
2 | Cc1cc(C)nc(NC(=O)c2ccc(-c3ncccc3Cl)cn2)c1 [Compound 312] | + (“+” compound exhibited 0-25% inhibition of calcium ion influx induced by capsaicin stimulation.)
3 | COc1cc(C(=O)Nc2cc(OC)c(OC)c(OC)c2)ccc1-c1ncccc1Cl [Compound 246] | + + + + (“+ + + +” compound exhibited 75% or greater inhibition of calcium ion influx induced by capsaicin stimulation.)
4 | COc1cc(C(=O)Nc2ccc3cn[nH]c3c2)ccc1-c1ncccc1Cl [Compound 247] | + + (“+ +” compound exhibited 25-50% inhibition of calcium ion influx induced by capsaicin stimulation.)
5 | COc1cccc(NC(=O)c2ccc(-c3ncccc3Cl)c(OC)c2)c1 [Compound 196] | + + (compound exhibited 25-50% inhibition of calcium ion influx induced by capsaicin stimulation)
6 | O=C(Nc1ccc(F)cc1)c1ccc(-c2ncccc2Cl)cn1 [Compound 291] | + (“+” compound exhibited 0-25% inhibition of calcium ion influx induced by capsaicin stimulation.)
7 | O=C(Nc1ccc(F)cc1)c1ccc(-c2ncccc2Cl)c(F)c1 [Compound 114] | + (compound exhibited 0-25% inhibition of calcium ion influx induced by capsaicin stimulation)
8 | N#Cc1cccc(NC(=O)c2ccc(-c3ncccc3Cl)c(F)c2)c1 [Compound 124] | + + + + (compound exhibited 75% or greater inhibition of calcium ion influx induced by capsaicin stimulation)
9 | O=C(Nc1ccccc1CCO)c1ccc(-c2ncccc2Cl)cc1 [Compound 23] | + + + (compound exhibited 50-75% inhibition of calcium ion influx induced by capsaicin stimulation)
10 | O=C(Nc1ccccc1O)c1ccc(-c2ncccc2Cl)cc1F [Compound 67] | + (compound exhibited 0-25% inhibition of calcium ion influx induced by capsaicin stimulation)
11 | COc1cc(C(=O)Nc2ccc(OC)c(C(F)(F)F)c2)ccc1-c1ncccc1Cl [Compound 258] | + + (“+ +” compound exhibited 25-50% inhibition of calcium ion influx induced by capsaicin stimulation.)
12 | O=C(O)c1cccc(NC(=O)c2ccc(-c3ncccc3Cl)c(F)c2)c1 [Compound 165] | + (compound exhibited 0-25% inhibition of calcium ion influx induced by capsaicin stimulation)
13 | CCCc1ccccc1NC(=O)c1ccc(-c2ncccc2Cl)c(F)c1 [Compound 118] | + (compound exhibited 0-25% inhibition of calcium ion influx induced by capsaicin stimulation)
14 | O=C(Nc1ccc2c(c1)OCCO2)c1ccc(-c2ncccc2Cl)cc1 [Compound 1] | + + (compound exhibited 25-50% inhibition of calcium ion influx induced by capsaicin stimulation)
15 | COc1ccc(NC(=O)c2ccc(-c3ncccc3Cl)c(OC)c2)cc1 [Compound 190] | + (compound exhibited 0-25% inhibition of calcium ion influx induced by capsaicin stimulation)
16 | COc1cc(C(=O)Nc2ccc(C#N)c(Cl)c2)ccc1-c1ncccc1Cl [Compound 248] | + + + + (“+ + + +” compound exhibited 75% or greater inhibition of calcium ion influx induced by capsaicin stimulation.)
17 | COc1ccccc1NC(=O)c1ccc(-c2ncccc2Cl)cc1 [Compound 13] | + + + + (compound exhibited 75% or greater inhibition of calcium ion influx induced by capsaicin stimulation)
18 | O=C(Nc1cccc(Cl)c1Cl)c1ccc(-c2ncccc2Cl)c(F)c1 [Compound 122] | + + + + (compound exhibited 75% or greater inhibition of calcium ion influx induced by capsaicin stimulation)
19 | O=C(Nc1ccc(N2CCNCC2)c(Cl)c1)c1ccc(-c2ncccc2Cl)cc1 [Compound 284] | + + + (“+ + +” compound exhibited 50-75% inhibition of calcium ion influx induced by capsaicin stimulation.)
20 | O=C(Nc1ccc(F)c(F)c1)c1ccc(-c2ncccc2Cl)cn1 [Compound 346] | + + + + (“+ + + +” compound exhibited 75% or greater inhibition of calcium ion influx induced by capsaicin stimulation.)
21 | CCCc1ccccc1NC(=O)c1ccc(-c2ncccc2Cl)c(OC)c1 [Compound 195] | + + (compound exhibited 25-50% inhibition of calcium ion influx induced by capsaicin stimulation)
22 | O=C(Nc1ccccc1)c1ccc(-c2ncccc2Cl)cn1 [Compound 289] | + + + + (“+ + + +” compound exhibited 75% or greater inhibition of calcium ion influx induced by capsaicin stimulation.)
23 | O=C(Nc1ccc2cn[nH]c2c1)c1ccc(-c2ncccc2Cl)cc1 [Compound 273] | + + (“+ +” compound exhibited 25-50% inhibition of calcium ion influx induced by capsaicin stimulation.)
24 | O=C(Nc1ccc2cc[nH]c2c1)c1ccc(-c2ncccc2Cl)cn1 [Compound 340] | + + + + (“+ + + +” compound exhibited 75% or greater inhibition of calcium ion influx induced by capsaicin stimulation.)
25 | O=C(Nc1ccc2ccccc2c1)c1ccc(-c2ncccc2Cl)cc1F [Compound 109] | + + (compound exhibited 25-50% inhibition of calcium ion influx induced by capsaicin stimulation)

Row | Compound | % Inhibition @ 1 uM
26 | O=C(Nc1ccccc1)c1ccc(-c2ncccc2Cl)cc1 [Compound 3] | + (compound exhibited 0-25% inhibition of calcium ion influx induced by capsaicin stimulation)
27 | O=C(Nc1cccc(Cl)c1)c1ccc(-c2ncccc2Cl)c(F)c1 [Compound 116] | + (compound exhibited 0-25% inhibition of calcium ion influx induced by capsaicin stimulation)
28 | O=C(Nc1ccc(OCc2ccccc2)cc1)c1ccc(-c2ncccc2Cl)cn1 [Compound 332] | + (“+” compound exhibited 0-25% inhibition of calcium ion influx induced by capsaicin stimulation.)
29 | CCCOc1ccc(NC(=O)c2ccc(-c3ncccc3Cl)cn2)cc1 [Compound 341] | + (“+” compound exhibited 0-25% inhibition of calcium ion influx induced by capsaicin stimulation.)
30 | CCN(CC)CCOC(=O)c1ccc(NC(=O)c2ccc(-c3ncccc3Cl)cc2)cc1 [Compound 265] | + (“+” compound exhibited 0-25% inhibition of calcium ion influx induced by capsaicin stimulation.)
31 | CCOc1ccc(NC(=O)c2ccc(-c3ncccc3Cl)c(OC)c2)cc1 [Compound 256] | + (“+” compound exhibited 0-25% inhibition of calcium ion influx induced by capsaicin stimulation.)
32 | O=C(Nc1cccc(Br)c1)c1ccc(-c2ncccc2Cl)cc1 [Compound 21] | + (compound exhibited 0-25% inhibition of calcium ion influx induced by capsaicin stimulation)
33 | O=C(Nc1cccc(OC(F)(F)F)c1)c1ccc(-c2ncccc2Cl)c(F)c1 [Compound 176] | + (compound exhibited 0-25% inhibition of calcium ion influx induced by capsaicin stimulation)
34 | CC(C)(C)c1ccc(NC(=O)c2ccc(-c3ncccc3Cl)c(F)c2)cc1 [Compound 125] | + + + + (compound exhibited 75% or greater inhibition of calcium ion influx induced by capsaicin stimulation)
35 | O=C(Nc1ccc(C(F)(F)F)cc1)c1ccc(-c2ncccc2Cl)c(F)c1 [Compound 135] | + + (compound exhibited 25-50% inhibition of calcium ion influx induced by capsaicin stimulation)
36 | COc1ccc(NC(=O)c2ccc(-c3ncccc3Cl)c(F)c2)cn1 [Compound 153] | + + (compound exhibited 25-50% inhibition of calcium ion influx induced by capsaicin stimulation)
37 | COc1cccc(NC(=O)c2ccc(-c3ncccc3Cl)cc2)c1 [Compound 2] | + (compound exhibited 0-25% inhibition of calcium ion influx induced by capsaicin stimulation)
38 | COc1cc(C(=O)Nc2ccc3ncccc3c2)ccc1-c1ncccc1Cl [Compound 233] | + + + + (“+ + + +” compound exhibited 75% or greater inhibition of calcium ion influx induced by capsaicin stimulation.)
39 | O=C(Nc1ncc(C(F)(F)F)cc1Cl)c1ccc(-c2ncccc2Cl)cc1F [Compound 98] | + (compound exhibited 0-25% inhibition of calcium ion influx induced by capsaicin stimulation)
40 | CCn1c2ccccc2c2cc(NC(=O)c3ccc(-c4ncccc4Cl)cn3)ccc21 [Compound 328] | + + + + (“+ + + +” compound exhibited 75% or greater inhibition of calcium ion influx induced by capsaicin stimulation.)
41 | O=C(Nc1cccc(Br)c1)c1ccc(-c2ncccc2Cl)cc1F [Compound 83] | + + + + (compound exhibited 75% or greater inhibition of calcium ion influx induced by capsaicin stimulation)
42 | N#Cc1cccc(NC(=O)c2ccc(-c3ncccc3Cl)cc2)c1 [Compound 22] | + (compound exhibited 0-25% inhibition of calcium ion influx induced by capsaicin stimulation)
43 | O=C(Nc1ccc(Cl)c(C(=O)O)c1)c1ccc(-c2ncccc2Cl)c(F)c1 [Compound 166] | + + + + (compound exhibited 75% or greater inhibition of calcium ion influx induced by capsaicin stimulation)
44 | O=C(Nc1ccnc(Cl)c1)c1ccc(-c2ncccc2Cl)cc1 [Compound 33] | + + + + (compound exhibited 75% or greater inhibition of calcium ion influx induced by capsaicin stimulation)
45 | N#Cc1ccccc1NC(=O)c1ccc(-c2ncccc2Cl)cn1 [Compound 292] | + (“+” compound exhibited 0-25% inhibition of calcium ion influx induced by capsaicin stimulation.)
46 | Cc1ccc(NC(=O)c2ccc(-c3ncccc3Cl)c(F)c2)c(C)c1 [Compound 128] | + + + + (compound exhibited 75% or greater inhibition of calcium ion influx induced by capsaicin stimulation)
47 | CCN(CC)c1ccc(NC(=O)c2ccc(-c3ncccc3Cl)cc2)cc1 [Compound 44] | + + + + (compound exhibited 75% or greater inhibition of calcium ion influx induced by capsaicin stimulation)
48 | COc1cc(C(=O)Nc2cccc(Cl)c2Cl)ccc1-c1ncccc1Cl [Compound 199] | + + + + (“+ + + +” compound exhibited 75% or greater inhibition of calcium ion influx induced by capsaicin stimulation.)
49 | O=C(Nc1ccc(Cl)c(C(F)(F)F)c1)c1ccc(-c2ncccc2Cl)cc1 [Compound 20] | + + + (compound exhibited 50-75% inhibition of calcium ion influx induced by capsaicin stimulation)
50 | COc1cc(C(=O)Nc2ccccc2C#N)ccc1-c1ncccc1Cl [Compound 192] | + (compound exhibited 0-25% inhibition of calcium ion influx induced by capsaicin stimulation)
